Laboratory results taken from ChEMBL document CHEMBL1201862, “PubChem BioAssay data set” (2004).
Calls of active or inactive are those of the source. For most assays here, no stated cut-off is given here; in the data, actives have a measured IC50 and inactives only a lower limit.

How the values were obtained:
[1] = target: T1, Dual specificity protein phosphatase 6 (Rattus norvegicus, UniProt Q64346)
T1 sequence (Q64346 whole entry): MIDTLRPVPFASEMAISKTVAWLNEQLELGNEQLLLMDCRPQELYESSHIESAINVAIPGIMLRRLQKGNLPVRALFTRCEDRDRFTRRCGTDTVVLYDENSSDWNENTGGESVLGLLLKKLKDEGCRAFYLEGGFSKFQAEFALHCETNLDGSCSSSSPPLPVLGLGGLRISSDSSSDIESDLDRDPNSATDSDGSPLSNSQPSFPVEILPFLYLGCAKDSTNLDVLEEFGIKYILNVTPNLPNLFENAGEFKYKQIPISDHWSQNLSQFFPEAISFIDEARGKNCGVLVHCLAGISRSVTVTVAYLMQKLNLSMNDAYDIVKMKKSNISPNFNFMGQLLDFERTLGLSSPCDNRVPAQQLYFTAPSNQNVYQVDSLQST

[2] = target: T2, Tyrosine-protein phosphatase non-receptor type 7 (Homo sapiens, UniProt P35236); format: functional
T2 sequence (P35236 whole entry): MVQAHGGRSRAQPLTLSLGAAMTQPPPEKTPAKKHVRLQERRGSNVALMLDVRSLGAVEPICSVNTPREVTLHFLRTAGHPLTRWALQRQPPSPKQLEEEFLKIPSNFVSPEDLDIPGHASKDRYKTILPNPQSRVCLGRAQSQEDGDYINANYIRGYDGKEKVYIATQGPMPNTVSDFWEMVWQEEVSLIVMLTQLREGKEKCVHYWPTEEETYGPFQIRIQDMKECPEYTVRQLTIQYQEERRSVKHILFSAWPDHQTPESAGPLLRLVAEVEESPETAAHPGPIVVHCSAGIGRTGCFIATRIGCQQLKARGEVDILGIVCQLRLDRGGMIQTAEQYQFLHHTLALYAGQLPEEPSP

[3] = target: T1, Dual specificity protein phosphatase 6; format: functional
[4] = target: Glyceraldehyde-3-phosphate dehydrogenase (Homo sapiens, UniProt P04406)
Sequence of Glyceraldehyde-3-phosphate dehydrogenase (P04406 whole entry): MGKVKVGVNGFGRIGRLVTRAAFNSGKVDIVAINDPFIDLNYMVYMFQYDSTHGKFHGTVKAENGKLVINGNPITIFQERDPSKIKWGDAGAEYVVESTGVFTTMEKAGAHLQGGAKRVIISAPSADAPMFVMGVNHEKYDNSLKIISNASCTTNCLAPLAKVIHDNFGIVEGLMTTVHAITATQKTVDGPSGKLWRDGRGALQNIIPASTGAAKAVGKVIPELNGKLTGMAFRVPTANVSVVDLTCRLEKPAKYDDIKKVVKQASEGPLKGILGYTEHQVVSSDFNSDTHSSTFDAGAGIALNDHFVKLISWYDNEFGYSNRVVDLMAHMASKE

[5] = target: Melanin-concentrating hormone receptor 1 (Homo sapiens, UniProt Q99705); experiment: Fluorescence-based counterscreen for antagonists of the G-protein coupled receptor 7 (GPR7): cell-based high throughput dose response assay to identify antagonists of the melanin-concentrating hormone receptor 1 (MCHR1).; format: functional
Sequence of Melanin-concentrating hormone receptor 1 (Q99705 whole entry): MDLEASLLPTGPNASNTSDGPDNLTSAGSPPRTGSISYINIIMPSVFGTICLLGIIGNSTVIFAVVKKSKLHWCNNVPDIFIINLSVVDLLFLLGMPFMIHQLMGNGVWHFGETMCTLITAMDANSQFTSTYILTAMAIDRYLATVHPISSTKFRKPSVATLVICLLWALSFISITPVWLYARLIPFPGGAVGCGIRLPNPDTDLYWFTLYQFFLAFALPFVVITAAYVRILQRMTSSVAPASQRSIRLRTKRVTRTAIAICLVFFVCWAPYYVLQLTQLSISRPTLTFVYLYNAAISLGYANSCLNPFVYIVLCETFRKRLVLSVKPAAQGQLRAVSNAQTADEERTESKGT

[6] = A cytotoxicity screen of small molecule inhibitors of the PhoP region in Salmonella typhi identified in the primary screen. [Related pubchem assays: 1850, 1864, 1985 ]; format: functional
[7] = target: DNA dC->dU-editing enzyme APOBEC-3A (Homo sapiens, UniProt P31941); experiment: A3A deaminase inhibition for selectivity – biochemical, dose response (AID 504722); format: functional
Sequence of DNA dC->dU-editing enzyme APOBEC-3A (P31941 whole entry): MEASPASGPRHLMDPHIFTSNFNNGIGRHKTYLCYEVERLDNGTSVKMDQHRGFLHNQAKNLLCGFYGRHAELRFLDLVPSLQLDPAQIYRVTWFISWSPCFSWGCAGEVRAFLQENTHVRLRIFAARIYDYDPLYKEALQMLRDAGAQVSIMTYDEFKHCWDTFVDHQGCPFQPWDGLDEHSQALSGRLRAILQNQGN

[8] = target: T3, Rac GTPase-activating protein 1 (Homo sapiens, UniProt Q9H0H5); experiment: blockers of MgcRacGAP-driven Rac1 GTP hydrolysis – biochemical, ADP Hunter fluorescence, primary and confirmatory, confirmation (AID 624330); format: functional
T3 sequence (Q9H0H5 whole entry): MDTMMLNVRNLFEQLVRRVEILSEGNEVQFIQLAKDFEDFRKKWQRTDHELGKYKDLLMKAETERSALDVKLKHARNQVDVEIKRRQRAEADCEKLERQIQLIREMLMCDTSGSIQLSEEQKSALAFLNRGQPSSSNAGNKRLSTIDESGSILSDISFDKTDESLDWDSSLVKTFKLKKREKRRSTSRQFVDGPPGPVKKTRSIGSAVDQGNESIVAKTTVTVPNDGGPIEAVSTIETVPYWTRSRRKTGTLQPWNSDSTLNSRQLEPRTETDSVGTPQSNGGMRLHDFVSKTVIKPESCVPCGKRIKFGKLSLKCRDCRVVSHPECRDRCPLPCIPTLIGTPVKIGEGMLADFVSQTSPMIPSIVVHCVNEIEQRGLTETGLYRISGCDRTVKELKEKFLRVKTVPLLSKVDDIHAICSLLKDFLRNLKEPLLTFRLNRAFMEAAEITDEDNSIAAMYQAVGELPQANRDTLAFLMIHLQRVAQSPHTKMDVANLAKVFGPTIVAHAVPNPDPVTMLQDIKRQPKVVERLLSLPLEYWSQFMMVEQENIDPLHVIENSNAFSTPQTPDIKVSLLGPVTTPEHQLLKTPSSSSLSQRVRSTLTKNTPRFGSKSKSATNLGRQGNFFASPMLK

[9] = target: DNA dC->dU-editing enzyme APOBEC-3G (Homo sapiens, UniProt Q9HC16); experiment: Dose Response confirmation of small molecule APOBEC3G DNA Deaminase Inhibitors via a fluorescence-based single-stranded DNA deaminase assay. [Related pubchem assays (depositor defined):AID493012, AID493028]; format: functional
Sequence of DNA dC->dU-editing enzyme APOBEC-3G (Q9HC16 whole entry): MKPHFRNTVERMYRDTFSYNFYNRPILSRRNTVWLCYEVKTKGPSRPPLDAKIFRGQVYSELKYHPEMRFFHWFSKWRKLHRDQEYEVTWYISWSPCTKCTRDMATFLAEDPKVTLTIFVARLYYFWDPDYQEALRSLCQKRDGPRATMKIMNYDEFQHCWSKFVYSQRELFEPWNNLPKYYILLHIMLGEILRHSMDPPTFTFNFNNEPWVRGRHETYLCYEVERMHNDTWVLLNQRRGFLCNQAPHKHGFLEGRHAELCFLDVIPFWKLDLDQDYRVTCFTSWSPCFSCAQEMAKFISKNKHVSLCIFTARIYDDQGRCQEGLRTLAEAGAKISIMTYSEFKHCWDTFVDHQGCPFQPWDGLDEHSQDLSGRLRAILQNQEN

[10] = target: T4, Alkaline phosphatase, tissue-nonspecific isozyme (Homo sapiens, UniProt P05186); experiment: potency against alkaline phosphatase TNAP – biochemical, luminescent, dose response, SAR follow-up (AID 1056)
T4 sequence (P05186 whole entry): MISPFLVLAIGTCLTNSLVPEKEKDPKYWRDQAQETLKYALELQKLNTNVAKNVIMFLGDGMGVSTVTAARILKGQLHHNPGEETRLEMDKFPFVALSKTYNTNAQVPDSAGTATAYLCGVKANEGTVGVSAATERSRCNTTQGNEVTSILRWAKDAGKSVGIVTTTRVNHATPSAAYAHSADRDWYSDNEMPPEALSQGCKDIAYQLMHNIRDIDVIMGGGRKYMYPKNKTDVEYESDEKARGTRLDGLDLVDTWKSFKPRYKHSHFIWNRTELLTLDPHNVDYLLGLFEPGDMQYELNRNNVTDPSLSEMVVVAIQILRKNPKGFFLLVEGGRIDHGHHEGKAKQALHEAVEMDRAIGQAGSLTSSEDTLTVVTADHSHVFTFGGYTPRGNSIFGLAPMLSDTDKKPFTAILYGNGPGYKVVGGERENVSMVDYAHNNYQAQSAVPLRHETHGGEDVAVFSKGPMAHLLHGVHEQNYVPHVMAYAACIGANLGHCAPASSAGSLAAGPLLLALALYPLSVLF

[11] = target: T5, Ubiquitin-conjugating enzyme E2 N (Homo sapiens, UniProt P61088); format: functional;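 further: Dose-response confirmation in a TR-FRET assay detecting UBC13-driven polyubiquitin chain formation, inhibition measured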
T5 sequence (P61088 whole entry): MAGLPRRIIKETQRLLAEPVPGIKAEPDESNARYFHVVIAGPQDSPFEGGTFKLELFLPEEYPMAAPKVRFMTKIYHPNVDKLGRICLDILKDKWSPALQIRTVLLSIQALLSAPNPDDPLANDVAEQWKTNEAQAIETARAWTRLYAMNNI

[12] = NIH3T3 cell viability loss – ATP luminescence, mouse fibroblasts, counter-screen, dose response (AID 2010); format: functional, cell-based;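 further: cells exposed to compound for about 90 hours before reading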
[13] = Trypanosoma cruzi growth suppression in host cells – NIH3T3 host cells, beta-gal luminescence, confirmation (AID 2044); format: functional, cell-based;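 further: intracellular parasites grown in NIH/3T3 mouse fibroblasts as host cells; luminescent beta-galactosidase reporter signal from transgenic T. cruzi replicating inside host cells; inhibitors lower the luminescence signal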
Aminopeptidase N = target: T6, Aminopeptidase N (Plasmodium falciparum FcB1/Columbia, UniProt O96935); experiment: malaria alanyl aminopeptidase activity blockers – biochemical, fluorogenic H-Leu-NHMec substrate, 1536-well (AID 1445); parameters: species or system Plasmodium falciparum 3D7, 3D7
T6 sequence (O96935 whole entry): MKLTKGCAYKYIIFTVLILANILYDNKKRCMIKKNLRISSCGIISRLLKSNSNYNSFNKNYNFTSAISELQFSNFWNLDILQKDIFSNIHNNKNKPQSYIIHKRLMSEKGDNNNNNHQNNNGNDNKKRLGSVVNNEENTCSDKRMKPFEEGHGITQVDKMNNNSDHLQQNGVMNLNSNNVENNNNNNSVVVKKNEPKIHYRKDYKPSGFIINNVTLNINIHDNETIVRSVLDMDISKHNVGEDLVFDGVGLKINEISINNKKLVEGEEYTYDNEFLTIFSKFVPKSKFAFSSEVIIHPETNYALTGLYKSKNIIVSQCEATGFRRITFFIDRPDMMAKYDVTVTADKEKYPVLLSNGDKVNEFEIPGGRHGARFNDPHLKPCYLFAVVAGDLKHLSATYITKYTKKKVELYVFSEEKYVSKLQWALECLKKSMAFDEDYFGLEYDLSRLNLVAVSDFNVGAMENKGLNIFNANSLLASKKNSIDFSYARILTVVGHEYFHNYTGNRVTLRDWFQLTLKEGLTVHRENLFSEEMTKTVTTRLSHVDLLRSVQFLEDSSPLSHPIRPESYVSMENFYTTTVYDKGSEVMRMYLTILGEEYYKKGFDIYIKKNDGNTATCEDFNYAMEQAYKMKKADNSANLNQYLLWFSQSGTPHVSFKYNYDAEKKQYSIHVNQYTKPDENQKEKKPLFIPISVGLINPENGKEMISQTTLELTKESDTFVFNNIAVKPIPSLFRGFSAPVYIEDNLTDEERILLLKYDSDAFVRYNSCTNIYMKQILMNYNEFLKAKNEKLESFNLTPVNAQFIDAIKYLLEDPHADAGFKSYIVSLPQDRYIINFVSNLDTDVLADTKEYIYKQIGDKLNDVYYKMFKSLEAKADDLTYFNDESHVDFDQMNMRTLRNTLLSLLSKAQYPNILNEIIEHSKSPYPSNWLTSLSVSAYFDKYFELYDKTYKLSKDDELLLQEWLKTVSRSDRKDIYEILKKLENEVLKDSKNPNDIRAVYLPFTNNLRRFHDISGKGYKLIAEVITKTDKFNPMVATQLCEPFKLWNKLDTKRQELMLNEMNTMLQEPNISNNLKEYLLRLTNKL

[14] = target: Voltage-dependent T-type calcium channel subunit alpha-1H (Homo sapiens, UniProt O95180); format: functional;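 further: channel activity triggered by adding a high calcium stimulation buffer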
Sequence of Voltage-dependent T-type calcium channel subunit alpha-1H (O95180 whole entry): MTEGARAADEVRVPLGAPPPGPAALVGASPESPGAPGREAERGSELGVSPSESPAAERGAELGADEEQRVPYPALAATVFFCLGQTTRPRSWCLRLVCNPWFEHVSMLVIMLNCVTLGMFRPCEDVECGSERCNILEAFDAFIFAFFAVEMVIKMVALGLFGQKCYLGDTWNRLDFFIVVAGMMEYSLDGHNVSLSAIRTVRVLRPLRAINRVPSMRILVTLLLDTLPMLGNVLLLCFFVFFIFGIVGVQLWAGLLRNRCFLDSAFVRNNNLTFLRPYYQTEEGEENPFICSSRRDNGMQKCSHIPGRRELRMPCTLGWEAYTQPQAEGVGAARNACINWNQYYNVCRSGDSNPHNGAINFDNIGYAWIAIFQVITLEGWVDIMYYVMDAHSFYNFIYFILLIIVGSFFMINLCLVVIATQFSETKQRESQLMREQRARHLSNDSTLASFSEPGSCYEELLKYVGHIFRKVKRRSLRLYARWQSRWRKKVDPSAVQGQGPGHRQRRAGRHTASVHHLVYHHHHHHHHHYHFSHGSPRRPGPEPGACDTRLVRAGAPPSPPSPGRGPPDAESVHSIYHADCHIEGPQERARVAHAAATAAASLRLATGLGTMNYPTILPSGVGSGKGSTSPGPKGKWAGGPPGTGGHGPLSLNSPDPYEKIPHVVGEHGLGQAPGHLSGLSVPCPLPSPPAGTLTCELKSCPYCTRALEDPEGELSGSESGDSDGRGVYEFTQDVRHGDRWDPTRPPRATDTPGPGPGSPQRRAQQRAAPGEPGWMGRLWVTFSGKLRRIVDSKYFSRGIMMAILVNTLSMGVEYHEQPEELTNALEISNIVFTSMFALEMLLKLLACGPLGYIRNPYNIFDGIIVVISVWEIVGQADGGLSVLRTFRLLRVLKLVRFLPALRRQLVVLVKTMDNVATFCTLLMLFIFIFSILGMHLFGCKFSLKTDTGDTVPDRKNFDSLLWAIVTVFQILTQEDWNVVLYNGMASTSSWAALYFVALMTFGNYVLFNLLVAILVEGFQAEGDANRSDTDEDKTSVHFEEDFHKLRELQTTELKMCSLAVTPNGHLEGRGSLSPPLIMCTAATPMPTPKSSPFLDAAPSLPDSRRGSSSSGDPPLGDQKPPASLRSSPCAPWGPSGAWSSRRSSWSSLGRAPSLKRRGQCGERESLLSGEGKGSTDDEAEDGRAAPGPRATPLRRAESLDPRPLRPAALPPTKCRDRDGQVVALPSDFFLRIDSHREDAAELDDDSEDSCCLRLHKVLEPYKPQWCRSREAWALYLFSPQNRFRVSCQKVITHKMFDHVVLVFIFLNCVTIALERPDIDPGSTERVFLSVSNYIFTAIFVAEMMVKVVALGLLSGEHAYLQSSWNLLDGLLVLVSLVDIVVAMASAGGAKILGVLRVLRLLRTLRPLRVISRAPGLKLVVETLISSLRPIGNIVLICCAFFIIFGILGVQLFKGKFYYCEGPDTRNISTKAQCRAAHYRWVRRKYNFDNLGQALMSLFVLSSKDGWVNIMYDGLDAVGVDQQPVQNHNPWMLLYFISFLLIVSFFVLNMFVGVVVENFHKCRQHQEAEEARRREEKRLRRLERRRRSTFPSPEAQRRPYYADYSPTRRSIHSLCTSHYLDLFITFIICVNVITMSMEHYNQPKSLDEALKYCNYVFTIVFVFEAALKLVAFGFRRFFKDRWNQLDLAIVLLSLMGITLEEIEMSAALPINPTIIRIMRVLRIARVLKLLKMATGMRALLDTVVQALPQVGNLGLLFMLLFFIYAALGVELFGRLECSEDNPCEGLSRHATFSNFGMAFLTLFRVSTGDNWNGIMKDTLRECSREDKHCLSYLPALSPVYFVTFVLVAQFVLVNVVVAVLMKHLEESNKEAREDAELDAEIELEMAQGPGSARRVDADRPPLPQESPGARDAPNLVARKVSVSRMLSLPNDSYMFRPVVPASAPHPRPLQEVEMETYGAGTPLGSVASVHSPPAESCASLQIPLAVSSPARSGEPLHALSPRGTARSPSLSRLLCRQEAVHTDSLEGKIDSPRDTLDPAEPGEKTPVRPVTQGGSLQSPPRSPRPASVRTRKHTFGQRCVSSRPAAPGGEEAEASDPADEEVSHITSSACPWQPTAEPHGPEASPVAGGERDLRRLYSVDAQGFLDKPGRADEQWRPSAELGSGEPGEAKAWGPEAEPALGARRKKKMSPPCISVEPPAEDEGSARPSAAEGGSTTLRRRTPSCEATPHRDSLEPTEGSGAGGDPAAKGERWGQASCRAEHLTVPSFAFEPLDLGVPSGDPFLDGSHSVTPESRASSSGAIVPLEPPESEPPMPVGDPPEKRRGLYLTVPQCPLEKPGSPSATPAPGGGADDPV

O=C(O)C1Nc2c(cccc2N2CCOCC2)C2C=CCC12 (configuration not stated)
IC50 [1]: 44 µM (active) | IC50 [2]: 3.87 µM (active) | IC50 [3]: 60.1 µM (active) | IC50 [4]: > 100 µM (not active)

O=C(c1ccco1)N1CCN(S(=O)(=O)c2ccc(S(=O)(=O)NC3CCCCC3)cc2)CC1
IC50 [5]: 23.8 µM (not active)

O=C1c2ccccc2C(=O)N1CCC(c1ccccc1)c1ccco1 (configuration not stated)
EC50 [6]: > 50 µM (active)

COc1ccc(/C=N/n2c(S)nnc2-c2[nH]nc3c2CCC3)cc1OC
IC50 [7]: > 100 µM (inactive) | IC50 [8]: 79.9 µM (active) | IC50 [9]: 2.49 µM (active)

CN1C(=O)C2(Nc3ccccc3-c3nc4ccccc4n32)c2ccccc21 (configuration not stated)
EC50 [6]: > 50 µM (active)

CCOc1ccc(S(=O)(=O)Nc2cnc3ccccc3c2)cc1
IC50 [10]: > 100 µM (inactive) | IC50 [4]: > 100 µM (not active)

C/C(Cl)=C\Cn1c(O)c(/N=N/C(=N)S)c2ccccc21
IC50 [11]: > 20 µM (inactive) | EC50 [12]: > 30 µM (not active) | EC50 [13]: 1.2 µM (active) | IC50 (Aminopeptidase N): 63.5 µM (active)

CCOc1ccccc1NC(=O)C1CCCN(S(=O)(=O)c2ccc(OC)c(C)c2)C1 (configuration not stated)
EC50 [14]: 13.6 µM (active)
